# According to patent publication US8404726B2, “Activating agent for peroxisome proliferator activated receptor δ” (Nippon Chemiphar Co. Ltd., priority 2006, dated 2013):
# Tests used:
# hPPARγ (LBD) = target: T1, hPPARγ (LBD) (Homo sapiens, UniProt P37231); experiment: PPAR activating function, GAL4-hPPARγ (LBD) luciferase reporter transfected into CV-1 cells; assay type: cell-based; conditions: control Rosiglitazone 10^−5 M = 100%
# T1 construct: A receptor expression plasmid (pSG5-GAL4-hPPARα or γ or δ (LBD)); GAL4 (fusion partner); expressed in transfected cells; host or cells: CV-1 cells (ATCC)
# T1 sequence (P37231 238-503 limits assumed): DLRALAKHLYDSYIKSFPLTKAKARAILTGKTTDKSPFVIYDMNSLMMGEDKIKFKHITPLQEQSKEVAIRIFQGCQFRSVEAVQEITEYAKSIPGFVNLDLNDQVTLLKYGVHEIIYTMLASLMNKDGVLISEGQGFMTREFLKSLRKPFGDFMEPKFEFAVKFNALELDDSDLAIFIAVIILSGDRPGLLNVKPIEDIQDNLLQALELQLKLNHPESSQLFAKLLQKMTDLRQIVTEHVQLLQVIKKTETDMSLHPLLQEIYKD
# Protocol: (§1) The PPAR activating effect of the compound of the invention was determined by the following method:
# (§2) A receptor expression plasmid (pSG5-GAL4-hPPARα or γ or δ (LBD)), a luciferase expression plasmid (MH100×4-TK-Luc), and a β-galactosidase expression plasmid (pCMX-β-GAL) are transfected into CV-1 cells (ATCC) (Kliewer, S. A. et al., (1992) Nature, 358: 771-774). After the gene transfer is conducted by utilizing a lipofection reagent (Lipofectamine 2000, Invitrogen), it is incubated for about 40 hours in the presence of a compound to be tested. The luciferase activity and β-GAL activity are measured on the soluble cells.
# (§3) The luciferase activity is calibrated by the β-GAL activity. A relative ligand activity is calculated under the condition that the luciferase activity of the cells treated by GW-590735 for PPARα, Rosiglitazone for PPARγ, or GW-501516 for PPARδ is set to 100% to determine EC50 (see the below-mentioned Examples 14 and 15).
# (§4) PPAR activating functions of test compounds (compounds of Examples) were measured in the manner described below.
# as §2, with “(pUC8-MH100×4-TK-Luc),” for “(MH100×4-TK-Luc),”, “were” for “are”, “was” for “is”
# (§5) The luciferase activity was calibrated by the β-GAL activity. A relative ligand activity was calculated under the condition that the luciferase activity of the cells treated by GW-590735 for PPARα, Rosiglitazone for […], or GW-501516 for PPARδ was set to 100% to determine EC50.
# (§6) The tests were conducted in the same manner to Example 14 (1).
# hPPARα (LBD) = target: T2, hPPARα (LBD) (Homo sapiens, UniProt Q07869); experiment: PPAR activating function, GAL4-hPPARα (LBD) luciferase reporter transfected into CV-1 cells; assay type: cell-based; conditions: control GW-590735 10^−6 M = 100%
# T2 construct: A receptor expression plasmid (pSG5-GAL4-hPPARα or γ or δ (LBD)); GAL4 (fusion partner); expressed in transfected cells; host or cells: CV-1 cells (ATCC)
# T2 sequence (Q07869 239-466 limits assumed): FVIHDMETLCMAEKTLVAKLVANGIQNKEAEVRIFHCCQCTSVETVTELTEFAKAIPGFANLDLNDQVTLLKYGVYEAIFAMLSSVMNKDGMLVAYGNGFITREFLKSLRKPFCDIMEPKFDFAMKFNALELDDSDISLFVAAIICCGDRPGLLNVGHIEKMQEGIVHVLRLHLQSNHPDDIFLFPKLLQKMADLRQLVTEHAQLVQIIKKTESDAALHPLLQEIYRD
# Protocol: as §1, §2, §3, §4
# as §2, with “(pUC8-MH100×4-TK-Luc),” for “(MH100×4-TK-Luc),”, “were” for “are”, “was” for “is”
# as §5, §6
# hPPARδ (LBD) = target: T3, hPPARδ (LBD) (Homo sapiens, UniProt Q03181); experiment: PPAR activating function, GAL4-hPPARδ (LBD) luciferase reporter transfected into CV-1 cells; assay type: cell-based
# T3 construct: A receptor expression plasmid (pSG5-GAL4-hPPARα or γ or δ (LBD)); GAL4 (fusion partner); expressed in transfected cells; host or cells: CV-1 cells (ATCC)
# T3 sequence (Q03181 211-439 limits assumed): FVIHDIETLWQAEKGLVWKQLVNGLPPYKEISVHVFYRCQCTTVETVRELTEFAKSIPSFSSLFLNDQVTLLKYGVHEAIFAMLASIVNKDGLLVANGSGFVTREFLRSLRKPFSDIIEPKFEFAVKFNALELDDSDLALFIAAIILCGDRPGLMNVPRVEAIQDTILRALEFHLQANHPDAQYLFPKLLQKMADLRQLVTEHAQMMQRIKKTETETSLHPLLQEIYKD
# Protocol: as §1, §2, §3, §4
# as §2, with “(pUC8-MH100×4-TK-Luc),” for “(MH100×4-TK-Luc),”, “were” for “are”, “was” for “is”
# as §5, §6
# [1] = 10^−6 M of the test compound (Examples 3 and 8)
# [2] = 10^−7M of the test compound, control GW-501516 10^−7 M = 100%, CV-1 cells
smiles,measurement,setting,value
"CCCCCCc1nc(-c2ccc(C)cc2)sc1CCC(=O)c1ccc(CCC(=O)O)c(C)c1 [Example 1, 3-[4-[3-[4-Hexyl-2-(4-methylphenyl)thiazol-5-yl]propionyl]-2-methylphenyl]propionic acid]","PPAR activity PPARγ (relative value, control = 100%)",hPPARγ (LBD); 10^−7 M of the test compound,Inactive
same,"PPAR activity PPARα (relative value, control = 100%)",hPPARα (LBD); 10^−7 M of the test compound,Inactive
"Cc1cc(C(=O)CCc2sc(-c3ccc(C(F)(F)F)cc3)cc2C(C)C)ccc1CCC(=O)O [Example 2, 3-[4-[3-[3-Isopropyl-5-[4-(trifluoromethyl)phenyl]thiophen-2-yl]propionyl]-2-methylphenyl]propionic acid]","PPAR activity PPARγ (relative value, control = 100%)",hPPARγ (LBD); 10^−7 M of the test compound,Inactive
same,"PPAR activity PPARα (relative value, control = 100%)",hPPARα (LBD); 10^−7 M of the test compound,Inactive
"Cc1cc(C(=O)CCc2nc(-c3ccccc3)oc2C(C)C)ccc1CCC(=O)O [Example 3, 3-[4-[3-(5-Isopropyl-2-phenyl-4-oxazolyl)propionyl]-2-methylphenyl]propionic acid]","PPAR activity PPARγ (relative value, control = 100%)",hPPARγ (LBD); [1],Inactive
same,"PPAR activity PPARα (relative value, control = 100%)",hPPARα (LBD); [1],Inactive
"Cc1cc(C(=O)C=Cc2sc(-c3ccc(C(F)(F)F)cc3)nc2C(C)C)ccc1C=CC(=O)O [Example 4, 3-[4-[3-[4-Isopropyl-2-[4-(trifluoromethyl)phenyl]thiazol-5-yl-]propenoyl]-2-methylphenyl]acrylic acid]","PPAR activity PPARδ (relative value, control = 100%)",hPPARδ (LBD); [2],22%
same,"PPAR activity PPARγ (relative value, control = 100%)",hPPARγ (LBD); 10^−7 M of the test compound,Inactive
same,"PPAR activity PPARα (relative value, control = 100%)",hPPARα (LBD); 10^−7 M of the test compound,Inactive
"Cc1cc(C(=O)CCc2sc(-c3ccc(C(F)(F)F)cc3)nc2C(C)C)ccc1CCC(=O)O [Example 5, 3-[4-[3-[4-Isopropyl-2-[4-(trifluoromethyl)phenyl]thiazol-5-yl]propionyl]-2-methylphenyl]propionic acid]",agonist function for PPARδ (in words),hPPARδ (LBD); summary of Tables 38 and 39,particularly strong agonist function
same,"PPAR activity PPARγ (relative value, control = 100%)",hPPARγ (LBD); 10^−7 M of the test compound,Inactive
same,"PPAR activity PPARα (relative value, control = 100%)",hPPARα (LBD); 10^−7 M of the test compound,Inactive
"C=C(CCc1sc(-c2ccc(C(F)(F)F)cc2)nc1C(C)C)c1ccc(CCC(=O)O)c(C)c1 [Example 6, 3-[4-[1-[2-[4-Isopropyl-2-[4-(trifluoromethyl)phenyl]thiazol-5-yl]ethyl]vinyl]-2-methylphenyl]propionic acid]","PPAR activity PPARγ (relative value, control = 100%)",hPPARγ (LBD); 10^−7 M of the test compound,Inactive
same,"PPAR activity PPARα (relative value, control = 100%)",hPPARα (LBD); 10^−7 M of the test compound,Inactive
"CC(C)c1nc(-c2ccc(C(F)(F)F)cc2)sc1CCC(=O)c1ccc(N(C)CC(=O)O)cc1 [Example 7, N-[4-[3-[4-Isopropyl-2-[4-(trifluoromethyl)phenyl]thiazol-5-yl]propionyl]phenyl]-N-methylglycine]","PPAR activity PPARγ (relative value, control = 100%)",hPPARγ (LBD); 10^−7 M of the test compound,Inactive
same,"PPAR activity PPARα (relative value, control = 100%)",hPPARα (LBD); 10^−7 M of the test compound,Inactive
"CC(C)c1nc(-c2ccc(C(F)(F)F)cc2)sc1CCC(=O)c1ccc(NCC(=O)O)cc1 [Example 8, N-[4-[3-[4-Isopropyl-2-[4-(trifluoromethyl)phenyl]thiazol-5-yl]propionyl]phenyl]glycine]","PPAR activity PPARγ (relative value, control = 100%)",hPPARγ (LBD); [1],Inactive
same,"PPAR activity PPARα (relative value, control = 100%)",hPPARα (LBD); [1],Inactive
"CC(C)c1cc(-c2ccc(C(F)(F)F)cc2)sc1CCC(=O)c1ccc(N(C)CC(=O)O)cc1 [Example 9, N-[4-[3-[3-Isopropyl-5-[4-(trifluoromethyl)phenyl]thiophen-2-yl]propionyl]phenyl]-N-methylglycine]","PPAR activity PPARγ (relative value, control = 100%)",hPPARγ (LBD); 10^−7 M of the test compound,Inactive
same,"PPAR activity PPARα (relative value, control = 100%)",hPPARα (LBD); 10^−7 M of the test compound,Inactive
"CC(C)c1oc(-c2ccc(Cl)cc2O)nc1CCC(=O)c1ccc(N(C)CC(=O)O)cc1 [Example 10, N-[4-[3-[2-(4-chloro-2-hydroxyphenyl)-5-isopropyl-4-oxazolyl]propionyl]phenyl]-N-methylglycine]",melting point,,166 to 168 °C
same,PPAR activity PPARδ: relative value (control = 100%),hPPARδ (LBD); [2],69%
same,PPAR activity PPARγ: relative value (control = 100%),hPPARγ (LBD); 10^−7 M of the test compound,Inactive
same,PPAR activity PPARα: relative value (control = 100%),hPPARα (LBD); 10^−7 M of the test compound,Inactive
"CCc1cc(C(=O)CCc2sc(-c3ccc(C(F)(F)F)cc3)nc2C(C)C)ccc1CCC(=O)O [Example 11, 3-[4-[3-[4-Isopropyl-2-[4-(trifluoromethyl)phenyl]-5-thiazolyl]propionyl]-2-ethylphenyl]propionic acid]",PPAR activity PPARδ: relative value (control = 100%),hPPARδ (LBD); [2],89%
same,PPAR activity PPARγ: relative value (control = 100%),hPPARγ (LBD); 10^−7 M of the test compound,Inactive
same,PPAR activity PPARα: relative value (control = 100%),hPPARα (LBD); 10^−7 M of the test compound,Inactive
"Cc1cc(C(=O)CCc2nc(-c3ccc(Cl)cc3O)oc2C(C)C)ccc1CCC(=O)O [Example 12, 3-[4-[3-[2-(4-Chloro-2-hydroxyphenyl)-5-isopropyl-4-oxazolyl]propionyl]-2-methylphenyl]propionic acid]",melting point,,141 to 144 °C
same,PPAR activity PPARδ: relative value (control = 100%),hPPARδ (LBD); [2],93%
same,PPAR activity PPARγ: relative value (control = 100%),hPPARγ (LBD); 10^−7 M of the test compound,Inactive
same,PPAR activity PPARα: relative value (control = 100%),hPPARα (LBD); 10^−7 M of the test compound,Inactive
"Cc1cc(C(=O)CCc2nc(-c3ccccc3O)oc2C(C)C)ccc1CCC(=O)O [Example 13, 3-[4-[3-[5-Isopropyl-2-(2-hydroxyphenyl)-4-oxazolyl]propionyl]-2-methylphenyl]propionic acid]",PPAR activity PPARδ: relative value (control = 100%),"hPPARδ (LBD); 10^−6 M of the test compound, control GW-501516 10^−7 M = 100%, CV-1 cells",62%
same,PPAR activity PPARγ: relative value (control = 100%),hPPARγ (LBD); 10^−6 M of the test compound,Inactive
same,PPAR activity PPARα: relative value (control = 100%),hPPARα (LBD); 10^−6 M of the test compound,Inactive
